Patent US20160244802A1, “Protein Demethylases Comprising a JMJC Domain” (The University of North Carolina at Chapel Hill, priority 2005, published 2016)

What was measured:
[1] = tested on: PSA enhancer and NKX3.1 gene; assay: ChIP assay in LNCaP cells; format: cell-based; settings: 50 nM, 1 hour
Procedure: (§1) Recombinant JMJD1A was mixed with in vitro translated […] AR in the absence or presence of R1881 (100 nM). After immunoprecipitation with anti-JHDM2A antibody, AR was detected by autoradiography. […] LNCaP cells were cultured in charcoal-stripped serum medium for three days and then treated without or with R1881 (50 nM) for 1 hour before being processed for ChIP analysis. […] LNCaP cells were transfected with a scramble (siCON), siJHDM2A or siLSD1 as indicated. Tubulin served as a loading control. […] The cells were treated as in FIG. 14B except the cells were collected for RNA isolation 8 hours after the R1881 treatment. […] The LNCaP cells were treated with siJHDM2A or siCON for three days and then 50 nM R1881 for 1 hour before processed for ChIP assays using antibodies as indicated.
For ChIP assay in LNCaP cells, the cells were cultured in charcoal-stripped serum medium for three days before treatment with R1881 (50 nM) for 1 hour. The ChIP assay was performed essentially as previously described (Yoon, et al. (2005) Mol. Cell Biol. 25:324-335). Primers for RT-PCR analysis of the PSA mRNA were 5′-GCCCACCCAGGAGCCAGCACT-3′ (SEQ ID NO:27) and 5′-GGCCCCCAGAATCACCCGAGCAG-3′ (SEQ ID NO:28).

[2] = tested on: AR target genes PSA, NKX3.1 and TMPRSS22; assay: Quantitative RT-PCR of AR target genes in LNCaP cells; format: cell-based; settings: 50 nM, 8 hours
Procedure: as §1
For ChIP assay in LNCaP cells, the cells were cultured in charcoal-stripped serum medium for three days before treatment with R1881 (50 nM) for 1 hour. […]
To directly test and compare the role of JHDM2A and LSD1 in hormone-dependent transcriptional activation, we used siRNA to knockdown JHDM2A and LSD1 in LNCaP cells (FIG. 14C). We then evaluated the effects of JHDM2A or LSD1 knockdown on the hormone induced activation of three AR target genes, PSA, NKX3.1 and TMPRSS22, by quantitative RT-PCR. […]

[3] = tested on: modified histone H3 peptide substrates (H3K4 me3, me2, me1); assay: Histone demethylase assay with modified histone H3 peptide substrates, mass spectrometry; format: biochemical

Molecule | binding of the AR to the PSA enhancer [1] | transcription from AR target genes [2] | removal of the me1 modification state ([3]; H3K4me1 peptide, in vitro) | demethylation of the modified substrate ([3]; H3K4me3 and me2 peptides, recombinant Flag-RBP2)
C[C@]1(O)CC[C@H]2[C@@H]3CCC4=CC(=O)CCC4=C3C=C[C@@]21C [R1881] | strong binding | robustly activated transcription | – | –
RBP2: Flag-tagged JmjC domain H3K4 demethylase expressed in SF9 cells by baculovirus, affinity purified | – | – | failed to catalyze removal | 80-90%
